Key:
Type in all cases: cell-based
[1] = test system: MDA-MB-231 (breast cancer); assay: Antiproliferative activity (CCK-8 cell viability), MDA-MB-231; conditions: Homo sapiens, 72 h, read-out: Antiproliferative activity in cancerous cells, MDA-MB-231 (inhibition of cell growth); for inhibition at 3.3 µM: Compound concentration: 3.3 μM; for inhibition at 10 µM: Compound concentration: 10 μM; for inhibition at 30 µM: Compound concentration: 30 μM
Summary of the method: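 Growth inhibition of human MDA-MB-231 breast cancer cells was assessed with a Cell Counting Kit-8. Cells cultured in DMEM plus 10% FBS were seeded at 2,000-5,000 cells/well, treated after attachment, and kept 72 h at 37° C. CCK-8 solution (10 μL) was added for 4 h, and absorbance at 450 nm was compared with DMSO-treated controls.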

HepG2 (liver cancer) = assay: Antiproliferative activity (CCK-8 cell viability), HepG2; conditions: Homo sapiens, 72 h, read-out: Antiproliferative activity in cancerous cells, HepG2 (inhibition of cell growth); for inhibition at 3.3 µM: Compound concentration: 3.3 μM; for inhibition at 10 µM: Compound concentration: 10 μM; for inhibition at 30 µM: Compound concentration: 30 μM
Summary of the method: (§1)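 Growth inhibition graded in bands from percent viability against DMSO vehicle, read as CCK-8 absorbance at 450 nm. Compound tested at 3.3, 10 or 30 μM for 72 h, 37 °C; media contained 10% FBS: DMEM for HepG2/SW480, MEM for HeLa, F-12K for A549.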

SW480 (colon cancer) = assay: Antiproliferative activity (CCK-8 cell viability), SW480; conditions: Homo sapiens, 72 h, read-out: Antiproliferative activity in cancerous cells, SW480 (inhibition of cell growth); for inhibition at 3.3 µM: Compound concentration: 3.3 μM; for inhibition at 10 µM: Compound concentration: 10 μM; for inhibition at 30 µM: Compound concentration: 30 μM
Summary of the method: as §1

[2] = test system: B16F10 (malignant melanoma); assay: Antiproliferative activity (CCK-8 cell viability), B16F10; conditions: Mus musculus, 72 h, read-out: Antiproliferative activity in cancerous cells, B16F10 (inhibition of cell growth); for inhibition at 3.3 µM: B16-F10, Compound concentration: 3.3 μM; for inhibition at 10 µM: B16-F10, Compound concentration: 10 μM; for inhibition at 30 µM: B16-F10, Compound concentration: 30 μM
Summary of the method: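 Cell growth inhibition was measured in B16F10 malignant melanoma cells with a Cell Counting Kit-8 viability assay. Cells were maintained in DMEM plus 10% fetal bovine serum, seeded at 2,000-5,000 cells/well in 96-well plates, and treated for 72 h at 37° C. Viability was expressed relative to DMSO-treated vehicle control wells.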

[3] = test system: A431 (epidermoid carcinoma); assay: Antiproliferative activity (CCK-8 cell viability), A431; conditions: Homo sapiens, 72 h, read-out: Antiproliferative activity in cancerous cells, A431 (inhibition of cell growth); for inhibition at 3.3 µM: A-431, Compound concentration: 3.3 μM; for inhibition at 10 µM: A-431, Compound concentration: 10 μM; for inhibition at 30 µM: A-431, Compound concentration: 30 μM
Summary of the method: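 This growth inhibition assay used A431 cells maintained in Dulbecco's modified Eagle's medium plus 10% fetal bovine serum. Cells were seeded in 96-well plates, treated with compound for 72 h at 37° C., and then given 10 μL CCK-8 solution. After a further 4 h, absorbance was read at 450 nm.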

[4] = test system: A549 (lung adenocarcinoma); assay: Antiproliferative activity (CCK-8 cell viability), A549; conditions: Homo sapiens, 72 h, read-out: Antiproliferative activity in cancerous cells, A549 (inhibition of cell growth); for inhibition at 3.3 µM: Compound concentration: 3.3 μM; for inhibition at 10 µM: Compound concentration: 10 μM; for inhibition at 30 µM: Compound concentration: 30 μM
Summary of the method: as §1

HeLa (cervical cancer) = assay: Antiproliferative activity (CCK-8 cell viability), HeLa; conditions: Homo sapiens, 72 h, read-out: Antiproliferative activity in cancerous cells, HELA (inhibition of cell growth); for inhibition at 3.3 µM: Compound concentration: 3.3 μM; for inhibition at 10 µM: Compound concentration: 10 μM; for inhibition at 30 µM: Compound concentration: 30 μM
Summary of the method: as §1

In the case of `CC1=C(CC(=O)O)c2cc(F)ccc2/C1=C/c1ccc(Oc2ccc(Cl)cc2F)cc1` [E24, (E)-2-(1-(4-(4-Chloro-2-Fluorophenoxy)benzylidene)-5-fluoro-2-methyl-1H-inden-3-yl)acetic acid], the inhibition at 3.3 µM [1] is reported as ≥ 50%, the inhibition at 10 µM [1] is reported as ≥ 50% and the inhibition at 30 µM [1] is reported as ≥ 50%. The inhibition at 3.3 µM (HepG2 (liver cancer)) was < 30%, the inhibition at 10 µM (HepG2 (liver cancer)) was ≥ 50% and the inhibition at 30 µM (HepG2 (liver cancer)) was ≥ 50%. For the same molecule, the inhibition at 3.3 µM (SW480 (colon cancer)) was < 30%, the inhibition at 10 µM (SW480 (colon cancer)) was ≥ 50% and the inhibition at 30 µM (SW480 (colon cancer)) was ≥ 50%. For the same molecule, the inhibition at 3.3 µM [2] was ≥ 50%, the inhibition at 10 µM [2] was ≥ 50% and the inhibition at 30 µM [2] was ≥ 50%. For the same molecule, the inhibition at 3.3 µM [3] was ≥ 50%, the inhibition at 10 µM [3] was ≥ 50% and the inhibition at 30 µM [3] was ≥ 50%. For the same molecule, the inhibition at 3.3 µM [4] was < 30%, the inhibition at 10 µM [4] was 30 to 50% and the inhibition at 30 µM [4] was ≥ 50%. The inhibition at 3.3 µM (HeLa (cervical cancer)) was < 30%, the inhibition at 10 µM (HeLa (cervical cancer)) was ≥ 50% and the inhibition at 30 µM (HeLa (cervical cancer)) was ≥ 50%.

`CC1=C(CC(=O)O)c2cc(F)ccc2/C1=C/c1ccc(Oc2ccc(F)cc2Cl)cc1` [E25, (E)-2-(1-(4-(2-Chloro-4-fluorophenoxy)benzylidene)-5-fluoro-2-methyl-1H-inden-3-yl)acetic acid] was tested, and the inhibition at 3.3 µM [1] was < 30%, the inhibition at 10 µM [1] was < 30% and the inhibition at 30 µM [1] was ≥ 50%. The inhibition at 3.3 µM (HepG2 (liver cancer)) was < 30%, the inhibition at 10 µM (HepG2 (liver cancer)) was ≥ 50% and the inhibition at 30 µM (HepG2 (liver cancer)) was ≥ 50%. For the same molecule, the inhibition at 3.3 µM (SW480 (colon cancer)) was ≥ 50%, the inhibition at 10 µM (SW480 (colon cancer)) was ≥ 50% and the inhibition at 30 µM (SW480 (colon cancer)) was ≥ 50%. For the same molecule, the inhibition at 3.3 µM [2] was 30 to 50%, the inhibition at 10 µM [2] was 30 to 50% and the inhibition at 30 µM [2] was ≥ 50%. The inhibition at 3.3 µM [3] was ≥ 50%, the inhibition at 10 µM [3] was ≥ 50% and the inhibition at 30 µM [3] was ≥ 50%. The inhibition at 3.3 µM [4] was < 30%, the inhibition at 10 µM [4] was < 30% and the inhibition at 30 µM [4] was ≥ 50%. For the same molecule, the inhibition at 3.3 µM (HeLa (cervical cancer)) was 30 to 50%, the inhibition at 10 µM (HeLa (cervical cancer)) was ≥ 50% and the inhibition at 30 µM (HeLa (cervical cancer)) was ≥ 50%.

`CC1=C(CC(=O)O)c2cc(F)ccc2/C1=C/c1cccc(Oc2cccc(Cl)c2)c1` [E26, (E)-2-(1-(3-(3-Chlorophenoxy)benzylidene)-5-fluoro-2-methyl-1H-inden-3-yl)acetic acid] was tested, and the inhibition at 3.3 µM [1] was < 30%, the inhibition at 10 µM [1] was < 30% and the inhibition at 30 µM [1] was ≥ 50%. For the same molecule, the inhibition at 3.3 µM (HepG2 (liver cancer)) was < 30%, the inhibition at 10 µM (HepG2 (liver cancer)) was ≥ 50% and the inhibition at 30 µM (HepG2 (liver cancer)) was ≥ 50%. For the same molecule, the inhibition at 3.3 µM (SW480 (colon cancer)) was < 30%, the inhibition at 10 µM (SW480 (colon cancer)) was < 30% and the inhibition at 30 µM (SW480 (colon cancer)) was ≥ 50%. For the same molecule, the inhibition at 3.3 µM [2] was < 30%, the inhibition at 10 µM [2] was < 30% and the inhibition at 30 µM [2] was ≥ 50%. For the same molecule, the inhibition at 3.3 µM [3] was < 30%, the inhibition at 10 µM [3] was ≥ 50% and the inhibition at 30 µM [3] was ≥ 50%. For the same molecule, the inhibition at 3.3 µM [4] was < 30%, the inhibition at 10 µM [4] was < 30% and the inhibition at 30 µM [4] was ≥ 50%. The inhibition at 3.3 µM (HeLa (cervical cancer)) was < 30%, the inhibition at 10 µM (HeLa (cervical cancer)) was ≥ 50% and the inhibition at 30 µM (HeLa (cervical cancer)) was ≥ 50%.

— patent US20260184663A1, “INDENE COMPOUNDS, PHARMACEUTICAL COMPOSITIONS THEREOF, AND THEIR THERAPEUTIC APPLICATIONS” (NucMito Pharmaceuticals co. Ltd., priority 2022, published 2026)
